Assay results published in paper PMC8682774 (2021).

Tests used:
[1] = system: 22AG (DNA, G4) AGGGTTAGGGTTAGGGTTAGGG; assay: G4-FID; details: 100 mM KCl, 10 mM lithium cacodylate pH 7.3, thiazole orange 0.5 µM displaced
[2] = system: 21CTA (DNA, G4) GGGCTAGGGCTAGGGCTAGGG; assay: G4-FID; details: 100 mM KCl, 10 mM lithium cacodylate pH 7.3, thiazole orange 0.5 µM displaced
[3] = system: c-Myc22 (G14T-G23T) (DNA, G4) TGAGGGTGGGTAGGGTGGGTAA; assay: G4-FID; details: 100 mM KCl, 10 mM lithium cacodylate pH 7.3, thiazole orange 0.5 µM displaced
[4] = system: cKit2 (DNA, G4) GGGCGGGCGCGAGGGAGGGG; assay: G4-FID; details: 100 mM KCl, 10 mM lithium cacodylate pH 7.3, thiazole orange 0.5 µM displaced
[5] = system: CEB25wt (DNA, G4) AAGGGTGGGTGTAAGTGTGGGTGGGT; assay: G4-FID; details: 100 mM KCl, 10 mM lithium cacodylate pH 7.3, thiazole orange 0.5 µM displaced
[6] = system: CEB25L111T (DNA, G4) AAGGGTGGGTGGGTGGGT; assay: G4-FID; details: 100 mM KCl, 10 mM lithium cacodylate pH 7.3, thiazole orange 0.5 µM displaced
[7] = system: TERRA (RNA, G4) AGGGUUAGGGUUAGGGUUAGGG; assay: G4-FID; details: 100 mM KCl, 10 mM lithium cacodylate pH 7.3, thiazole orange 0.5 µM displaced
[8] = system: NRAS (RNA, G4) GGGAGGGGCGGGUCUGGG; assay: G4-FID; details: 100 mM KCl, 10 mM lithium cacodylate pH 7.3, thiazole orange 0.5 µM displaced
[9] = system: F21T (DNA, G4) GGGTTAGGGTTAGGGTTAGGG; assay: FRET melting; details: 10 mM KCl, 90 mM LiCl; 10 mM lithium cacodylate pH 7.2; 0.2 µM G4; 1 µM ligand; no competitor
[10] = system: Biot-hTelo (DNA, G4) GGTTAGGGTTAGGGTTAGGGTTAGGGTTAGG; assay: adapted ELISA, anti-BrdU antibody; details: 100 mM KCl; 10 mM Tris-HCl pH 7.4; 250 nM ligand, oligonucleotide varied; apparent
[11] = system: Biot-cMyc (DNA, G4) TGAGGGTGGGTAGGGTGGGTAA; assay: adapted ELISA, anti-BrdU antibody; details: 100 mM KCl; 10 mM Tris-HCl pH 7.4; 250 nM ligand, oligonucleotide varied; apparent
[12] = system: Biot-TERRA (RNA, G4) UUAGGGUUAGGGUUAGGGUUAGGG; assay: adapted ELISA, anti-BrdU antibody; details: 100 mM KCl; 10 mM Tris-HCl pH 7.4; 250 nM ligand, oligonucleotide varied; apparent

For `C#CCCCC(=O)NCCCCNc1cc(C(=O)Nc2cc3ccccc3[n+](C)c2)nc(C(=O)Nc2cc3ccccc3[n+](C)c2)c1`, the DC50 ([1]; 0.25 µM G4) was 370 nM, the DC50 ([2]; 0.25 µM G4) was 300 nM and the DC50 ([3]; 0.25 µM G4) was 310 nM. The DC50 ([4]; 0.25 µM G4) was 200 nM, the DC50 ([5]; 0.25 µM G4) was 400 nM and the DC50 ([6]; 0.25 µM G4) was 230 nM. For the same compound, the DC50 ([7]; 0.25 µM G4) was 0.31 µM, the DC50 ([8]; 0.25 µM G4) was 0.21 µM and the binding [9] was “yes”.
For `C[n+]1cc(NC(=O)c2cc(NCCCCNC(=O)CCCc3cn(CO[C@H]4C[C@H](n5cc(Br)c(=O)[nH]c5=O)O[C@@H]4CO)nn3)cc(C(=O)Nc3cc4ccccc4[n+](C)c3)n2)cc2ccccc21`, the DC50 ([1]; 0.25 µM G4) was 800 nM, the DC50 ([2]; 0.25 µM G4) was 1100 nM and the DC50 ([3]; 0.25 µM G4) was 520 nM. The DC50 ([4]; 0.25 µM G4) was 380 nM, the DC50 ([5]; 0.25 µM G4) was 760 nM and the DC50 ([6]; 0.25 µM G4) was 480 nM. The DC50 ([7]; 0.25 µM G4) was 0.42 µM, the DC50 ([8]; 0.25 µM G4) was 0.32 µM and the Kd [10] was 9.6 ± 1.3 nM. The Kd [11] was 3.5 ± 0.9 nM and the Kd [12] was 29.6 ± 7.8 nM.
`C[n+]1cc(NC(=O)c2cccc(C(=O)Nc3cc4ccccc4[n+](C)c3)n2)cc2ccccc21` showed a DC50 ([1]; 0.25 µM DNA) of 340 nM, a DC50 ([2]; 0.25 µM DNA) of 180 nM and a DC50 ([3]; 0.25 µM DNA) of 150 nM. For the same compound, the DC50 ([4]; 0.25 µM DNA) was 180 nM, the DC50 ([5]; 0.25 µM DNA) was 290 nM and the DC50 ([6]; 0.25 µM DNA) was 260 nM. The DC50 ([7]; 0.25 µM RNA, decimal comma) was 0,25 µM and the DC50 ([8]; 0.25 µM RNA, decimal comma) was 0,20 µM.
